# “Also recorded” adds a separate entry of the source. Like-named read-outs stand apart in the source and are kept apart here.
# Tests used:
# tau [1] = molecular target: T1, tau (Homo sapiens, UniProt P10636); experiment: MCE Phenols Library screening, tau biosensor cell seeding assay (AvZ); assay type: cell-based; details: for AvZ (average z score of seeding, SDs from the mean level of seeding): 10 μM phenol in cell cultures, AD brain homogenate preincubated 16 hours, two biological replicates, positive = catalyzes seeding, negative = inhibits; for Z repl 1 / Z Repl 2: Z score; for Z repl 1 / raw data 1: replicate 1; for Z Repl 2 / raw data 2: replicate 2; for raw data 1 / raw data 2: puncta
# Target sequence in this assay (P10636 623-695 limits assumed): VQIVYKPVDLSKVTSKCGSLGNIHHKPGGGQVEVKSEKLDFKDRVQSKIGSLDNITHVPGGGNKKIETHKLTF
# tau [2] = molecular target: T1, tau; experiment: Tau biosensor dose titrations (HEK293T tau biosensor cells seeded with AD brain homogenate);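 for all read-outs here: AD brain homogenate preincubated 16 h with compound, then transfected into tau biosensor cells, seeding read as tau puncta counted by imaging, normalized to cell confluence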; assay type: cell-based; details: for effect on seeding at 10 μM: 10 μM final concentration on cells; for effect on seeding at 10 μM / effect on seeding at 50 μM: AD brain homogenate seed; for effect on seeding, concentrations ranging from 10 to 100 μM: AD brain homogenate seed (Fig. 2A); for dose-dependent effect of NT on tau seeding: AD brain homogenate pretreated with indicated amounts of NT (Fig. 3A); for effect on seeding, extended dose series: NT concentrations tested from 25 nM to 100 µM (fig. S6); for effect on seeding at 50 μM: 50 μM final concentration on cells
# [3] = molecular target: tau fibrils purified from AD brain (Homo sapiens, UniProt P10636); experiment: Quantitative electron microscopy (qEM) of fibril disaggregation; assay type: biochemical; details: 75 μM; for effect on tau fibril load (qEM): 24-hour treatment, vs no inhibitor control; for reduction of tau fibril counts: preincubated 24 hours, N = 96 images
# [4] = molecular target: T2, P301S 4R1N tau fused with YFP (Homo sapiens, UniProt P10636, P618S)
# VMAT2 = details: cited from earlier work
# [5] = molecular target: T2, P301S 4R1N tau fused with YFP; experiment: cell-based
# [6] = tested on: intracellular DA concentrations; details: cited from earlier work
# [7] = average puncta of the two replicates
# [8] = AD brain homogenate diluted to […] ptau, read-out: IC50 low tau load
# [9] = average Z score of the two replicates, tau seeding
# [10] = average Z score of the two replicates, MCE Phenols Library screen
# T2 sequence (P10636 1-412 isoform P10636-7 P272S): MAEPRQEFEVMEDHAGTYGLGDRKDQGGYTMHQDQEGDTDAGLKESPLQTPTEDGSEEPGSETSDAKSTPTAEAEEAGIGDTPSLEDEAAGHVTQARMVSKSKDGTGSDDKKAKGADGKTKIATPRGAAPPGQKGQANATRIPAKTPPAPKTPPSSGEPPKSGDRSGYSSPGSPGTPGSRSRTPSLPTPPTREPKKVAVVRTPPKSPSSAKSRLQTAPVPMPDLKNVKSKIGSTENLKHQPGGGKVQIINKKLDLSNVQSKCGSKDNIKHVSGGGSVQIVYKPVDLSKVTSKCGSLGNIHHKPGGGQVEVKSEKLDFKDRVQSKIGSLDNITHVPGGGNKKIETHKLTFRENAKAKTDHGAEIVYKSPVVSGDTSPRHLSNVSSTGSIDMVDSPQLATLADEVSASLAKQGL
# Chain of tau fibrils purified from AD brain (P10636 623-695 limits assumed): as the sequence (P10636 623-695 limits assumed) above
raw data 1 (tau [1]),raw data 2 (tau [1]),Molecule,Z repl 1 (tau [1]),Z Repl 2 (tau [1]),av puncta (tau [1]; average of raw data 1 and 2),dose-dependent effect of NT on tau seeding (tau [2]),further results
–,–,NC(Cc1ccc(O)c(O)c1)C(=O)O (racemic) [DL-DOPA],–,–,–,–,"AvZ (average z score of seeding, SDs from the mean level of seeding) (tau [1]): 1.763; AvZ (average z score of seeding, SDs from the mean level of seeding) (tau [1]; listed as DL-dopa): 1.76; effect on seeding at 10 μM (tau [2]): seeding catalyst; also recorded: catalyzed; effect on seeding, concentrations ranging from 10 to 100 μM (tau [2]): dose-dependent inhibitor at higher concentrations"
48433.9,33932.7,NC(Cc1cccc(O)c1)C(=O)O (racemic) [DL-m-Tyrosine],1.84,1.982,41183.3,–,"AvZ (average z score of seeding, SDs from the mean level of seeding) (tau [1]): 1.911; effect on seeding, concentrations ranging from 10 to 100 μM (tau [2]): catalyzed seeding independently of dose at all concentrations tested"
24430.2,4529.6,O=C(O)Cc1c[nH]c2ccc(O)cc12 [5-Hydroxyindole-3-acetic acid],-0.16,-0.771,–,inhibited tau seeding at levels comparable to EP,"AvZ (average z score of seeding, SDs from the mean level of seeding) (tau [1]): -0.466; av puncta (tau [1]; [7]): 14479.9"
–,–,N[C@H](Cc1ccc(O)c(O)c1)C(=O)O [D-dopa],–,–,–,–,IC50 (tau [2]; [8]): 1.9 µM
–,–,"NCCc1ccc(O)c(O)c1 [DA, dopamine, reference compound]",–,–,–,potently and dose-dependently inhibited tau seeding,"effect on seeding at 10 μM (tau [2]): inhibited; IC50 (tau [2]; [8]): 3.6 µM; IC50 (tau [2]; AD brain homogenate with ptau […], read-out: IC50 high tau load): 9.8 µM; effect on tau fibril load (qEM) [3]: significantly reduce AD tau fibrils; reduction of tau fibril counts [3]: about 50%; effect of lower doses on seeding in dopaminergic neurons ([4]; around 1 μM, high tau load): catalytic effect on seeding; effect on seeding in dopaminergic neurons at 50 μM ([4]; final concentration 50 μM on cells): inhibited seeding; affinity for VMAT2 relative to 5-HT (VMAT2): comparable or slightly lower affinity for VMAT2 than 5-HT; IC50 [5]: 16.6 µM"
–,–,"O=C(O)Cc1ccc(O)c(O)c1 [DOPAC, 3,4-dihydroxyphenylacetic acid]",–,–,–,inhibited seeding with effects similar to DA,–
–,–,"CNC[C@H](O)c1ccc(O)c(O)c1 [EP, epinephrine, reference compound]",–,–,–,inhibited seeding with the next greatest efficacy,–
–,–,"NCCCC(=O)O [GABA, γ-aminobutyric acid]",–,–,–,no significant inhibitory effects on tau seeding,"effect on seeding, extended dose series (tau [2]): No inhibitory effect"
–,–,CC(C)=CCc1c(O)cc2oc3cc(O)c(O)c(CCC(C)(C)O)c3c(=O)c2c1O [Garcinone C],–,–,–,–,"AvZ (average z score of seeding, SDs from the mean level of seeding) (tau [1]): 3.115; effect on seeding at 10 μM (tau [2]): catalyzed seeding; effect on seeding at 50 μM (tau [2]): inhibited seeding"
–,–,N[C@@H](Cc1ccc(O)c(O)c1)C(=O)O [L-dopa],–,–,–,–,IC50 (tau [2]; [8]): 1.9 µM; effect on tau fibril load (qEM) [3]: significantly reduce AD tau fibrils; reduction of tau fibril counts [3]: ~75%; increase of intracellular DA concentrations [6]: ~10 fold; intracellular DA concentration in neurons treated with levodopa [6]: up to 17 μM
–,–,"NC[C@H](O)c1ccc(O)c(O)c1 [NE, norepinephrine, reference compound]",–,–,–,–,"IC50 (tau [2]; AD brain homogenate diluted to 0.11 ng/μl ptau, read-out: IC50 low tau load): > 25 µM"
–,–,CC(=O)OCC[N+](C)(C)C [acetylcholine],–,–,–,no significant inhibitory effects on tau seeding,"effect on seeding, extended dose series (tau [2]): No inhibitory effect"
–,–,"Nc1ncnc2c1ncn2[C@@H]1O[C@H](CO)[C@@H](O)[C@H]1O [adenosine, reference compound]",–,–,–,no significant inhibitory effects on tau seeding; also recorded: dose-dependently catalyzed tau seeding,–
–,–,COc1c(O)cc2oc3cc(O)c(CC=C(C)C)c(O)c3c(=O)c2c1CCC(C)(C)O [garcinone D],–,–,–,–,av Z (tau [1]; [9]): 0.598; effect on seeding at 10 μM (tau [2]): catalyzed seeding; effect on seeding at 50 μM (tau [2]): inhibited seeding
–,–,N[C@@H](CCC(=O)O)C(=O)O [glutamate],–,–,–,no significant inhibitory effects on tau seeding,"effect on seeding, extended dose series (tau [2]): No inhibitory effect"
27448.5,18561.5,COc1ccc(-c2cc(=O)c3c(O)cc(O)c(-c4cc(-c5cc(=O)c6c(O)cc(OC)cc6o5)ccc4OC)c3o2)cc1 [sciadopitysin],0.092,0.543,23005,–,av Z (tau [1]; [9]): 0.317; effect on seeding at 10 μM (tau [2]): catalyzed seeding; effect on seeding at 50 μM (tau [2]): inhibited seeding
–,–,"NCCc1c[nH]c2ccc(O)cc12 [serotonin, 5-hydroxytryptamine]",–,–,–,no significant inhibitory effects on tau seeding,Kd (VMAT2; read-out: dissociation constant (Kd) for VMAT2): 3.3 µM
119.783,55.562,Punicalagin,-2.185,-1.19,87.672,–,av Z (tau [1]; [10]): -1.687
725.667,34.42,Punicalin,-2.134,-1.192,380.043,–,av Z (tau [1]; [10]): -1.663
392.747,253.87,"Theaflavin 3,3'-digallate",–,–,323.309,–,–
12607.7,10414,Thymopentin [reference compound],-1.145,-0.22,–,–,"AvZ (average z score of seeding, SDs from the mean level of seeding) (tau [1]): -0.682; av puncta (tau [1]; [7]): 11510.9"

Molecule,raw data 1 (tau [1]),raw data 2 (tau [1]),Z repl 1 (tau [1]),Z Repl 2 (tau [1]),av puncta (tau [1]; average of raw data 1 and 2),dose-dependent effect of NT on tau seeding (tau [2]),further results
COc1cc(CC(=O)O)ccc1O [Homovanillic acid],22315.8,15201.8,-0.336,0.228,18758.8,–,"AvZ (average z score of seeding, SDs from the mean level of seeding) (tau [1]): -0.054; AvZ (average z score of seeding, SDs from the mean level of seeding) (tau [1]; listed as HVA): −0.054; effect on tau fibril load (qEM) ([3]; listed as HVA): significant reduction in fibrils, though to a lesser extent"
Medicarpin,14494.9,11569.9,-0.987,-0.112,–,–,av Z (tau [1]; [10]): -0.55; av puncta (tau [1]; [7]): 13032.4
Myricitrin,18913,187.899,-0.619,-1.178,9550.45,–,av Z (tau [1]; [10]): -0.899
Neosmitilbin,28721.6,11093.4,0.198,-0.157,19907.5,–,"av Z (tau [1]; average Z score of two replicates, Phenols Library screen): 0.021"
Rhodiosin,10373.6,522.423,-1.331,-1.146,5448.02,–,av Z (tau [1]; [10]): -1.239
Tubuloside A,28967.6,15687.1,0.218,0.274,22327.4,–,–
